Data as given in patent publication US20240269298A1, “PHOSPHONYL DERIVATIVE, AND COMPOSITION AND PHARMACEUTICAL APPLICATION THEREOF” (XIZANG HAISCO PHARMACEUTICAL CO., LTD., priority 2021, published 2024).
Where two headings read alike, the source gives them in different places.

How the values were obtained:
[1] = tested on: NCI-H1975 (EGFR-L858R-T790M) cells; assay: Inhibitory activity on proliferation of NCI-H1975 (EGFR-L858R-T790M) cells (CTG, 72 h); format: cell-based; details: Homo sapiens
Procedure, shortened: (§1)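 IC50 values come from S-shaped dose-survival fits of CTG signal expressed as % of vehicle. Compound exposure lasted 72 h at 37 °C with 0.1% DMSO; seeding was 3000 A431 cells/well in DMEM+10% FBS and 1000 NCI-H1975 cells/well in RPMI1640+10% FBS.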

[2] = tested on: A431 (EGFR-WT) cells; assay: Inhibitory activity on proliferation of A431 (EGFR-WT) cells (CTG, 72 h); format: cell-based; details: Homo sapiens, A-431
Procedure, shortened: as §1

[3] = Pharmacokinetic test in mice; format: in vivo; details: male, ICR, mouse, po, administration i.g. (10 mg/kg), plasma
Method: Test objective: In this experiment, a single dose of test compounds was administered to ICR mice intravenously and intragastrically, the concentrations of the test compounds in plasma of mice were measured, and the pharmacokinetic characteristics and bioavailability of the test compounds in mice were evaluated.
Experimental animals: male ICR mice, 20-25 g, purchased from BEIJING HFK BIOSCIENCE CO., LTD. with the laboratory animal production license number of SCXK (JING) 2019-0008; or purchased from CHENGDU DDOSSY EXPERIMENTAL ANIMALS CO., LTD. (SCXK (CHUAN) 2020-030); or purchased from HUNAN SJA LABORATORY ANIMAL CO., LTD. (SCXK (XIANG) 2019-0004).
Experimental method: on the day of the experiment, ICR mice were randomly grouped according to their body weights. The mice were fasted with water available for 12 to 14 hours one day before the administration, and were fed 4 hours after the administration.
Sampling: before and after the administration, blood was taken from the orbits of the mice under isoflurane anesthesia, and placed in an EDTAK2 centrifuge tube. Centrifugation was carried out at 5000 rpm at 4° C. for 10 min, and the plasma was collected.
Time points for plasma collection in G1&G2 groups: 0, 5 min, 15 min, 30 min, 1h, 2h, 4h, 6h, 8h, and 24 h; • time points for plasma collection in G3 group: 0, 5 min, 15 min, 30 min, 1 h, 2 h, 4 h, 6h, 8h, and 24 h; • before analysis and detection, all samples were stored at −80° C. The samples were analyzed quantitatively by LC-MS/MS.

[4] = read-out: IC50 (value in brackets)

Compound `COc1cc(N2CCC(CN3CCC4(CC3)CCN(c3ccc5c(c3)C(=O)N(C3CCC(=O)NC3=O)C5=O)CC4)CC2)c(-c2cnn(C)c2)cc1Nc1ncc(Cl)c(Nc2ccc(-c3ccccc3)cc2P(C)(C)=O)n1` (stereo not drawn) [Compound 48, 5-(9-((1-(4-((5-chloro-4-((3-(dimethylphosphoryl)-[1,1′-biphenyl]-4-yl)amino)pyrimidin-2-yl)amino)-5-methoxy-2-(1-methyl-1H-pyrazol-4-yl)phenyl)piperidin-4-yl)methyl)-3,9-diazaspiro[5.5]undecan-3-yl)-2-(2,6-dioxopiperidin-3-yl)isoindoline-1,3-dione] has an IC50 ([1]; read-out: IC50 (class symbol)) of less than 100 nM, an IC50 [1, 4] of 32 nM and an IC50 [2] of no less than 10000 nM. For the same compound, the AUC(0-t) [3] was 7790 ng·h/mL.
Work on `COc1cc(N2CCC(N3CCN(CC4CCN(c5cc6c(cc5F)C(=O)N(C5CCC(=O)NC5=O)C6=O)CC4)CC3)CC2)c(-c2cnn(C)c2)cc1Nc1ncc(Br)c(Nc2ccc(-c3ccccc3)cc2P(C)(C)=O)n1` (stereo not drawn) [Compound 87, 5-(4-((4-(1-(4-((5-bromo-4-((3-(dimethylphosphoryl)-[1,1′-biphenyl]-4-yl)amino)pyrimidin-2-yl)amino)-5-methoxy-2-(1-methyl-1H-pyrazol-4-yl)phenyl)piperidin-4-yl)piperazin-1-yl)methyl)piperidin-1-yl)-2-(2,6-dioxopiperidin-3-yl)-6-fluoroisoindoline-1,3-dione] yielded an IC50 ([1]; read-out: IC50 (class symbol)) of less than 100 nM, an IC50 [1, 4] of 45 nM and an IC50 [2] of no less than 10000 nM. For the same compound, the AUC(0-t) [3] was 2340 ng·h/mL.
Work on `COc1cc(N2CCN(c3ccc4c(c3)C(=O)N(C3CCC(=O)NC3=O)C4=O)CC2)c(-c2cnn(C)c2)cc1Nc1ncc(Br)c(Nc2ccc(-c3ccccc3)cc2P(C)(C)=O)n1` (stereo not drawn) [Compound 80, 5-(4-(4-((5-bromo-4-((3-(dimethylphosphoryl)-[1,1′-biphenyl]-4-yl)amino)pyrimidin-2-yl)amino)-5-methoxy-2-(1-methyl-1H-pyrazol-4-yl)phenyl)piperazin-1-yl)-2-(2,6-dioxopiperidin-3-yl)isoindoline-1,3-dione] yielded an IC50 ([1]; read-out: IC50 (class symbol)) of 100 to 500 nM, an IC50 [1, 4] of 129 nM and an IC50 [2] of no less than 10000 nM. The AUC [3] was 81900 ng·h/mL and the half-life [3] was 10.4 h.
In the case of `COc1cc(N2CCC(CN3CCC4(CC3)CCN(c3ccc5c(c3)C(=O)N(C3CCC(=O)NC3=O)C5=O)CC4)CC2)c(-c2cnn(C)c2)cc1Nc1ncc(Br)c(Nc2ccc(-c3ccccc3F)cc2P(C)(C)=O)n1` (stereo not drawn) [Compound 95, 5-(9-((1-(4-((5-bromo-4-((3-(dimethylphosphoryl)-2′-fluoro-[1,1′-biphenyl]-4-yl)amino)pyrimidin-2-yl)amino)-5-methoxy-2-(1-methyl-1H-pyrazol-4-yl)phenyl)piperidin-4-yl)methyl)-3,9-diazaspiro[5.5]undecan-3-yl)-2-(2,6-dioxopiperidin-3-yl)isoindoline-1,3-dione], the IC50 ([1]; read-out: IC50 (class symbol)) is reported as less than 100 nM, the IC50 [1, 4] is reported as 49 nM and the IC50 [2] is reported as no less than 10000 nM. It also gave an AUC(0-t) [3] of 20800 ng·h/mL.
With `COc1cc(N2CCC(N3CCN(CC4CCN(c5ccc6c(c5)C(=O)N(C5CCC(=O)NC5=O)C6=O)CC4)CC3)CC2)c(-c2cnn(C)c2)cc1Nc1ncc(Cl)c(Nc2ccc3ccccc3c2P(C)(C)=O)n1` (stereo not drawn) [Compound 72, 5-(4-((4-(1-(4-((5-chloro-4-((1-(dimethylphosphoryl)naphthalen-2-yl)amino)pyrimidin-2-yl)amino)-5-methoxy-2-(1-methyl-1H-pyrazol-4-yl)phenyl)piperidin-4-yl)piperazin-1-yl)methyl)piperidin-1-yl)-2-(2,6-dioxopiperidin-3-yl)isoindoline-1,3-dione] the IC50 ([1]; read-out: IC50 (class symbol)) was less than 100 nM, the IC50 [1, 4] was 31 nM and the IC50 [2] was no less than 10000 nM. It also gave an AUC(0-t) [3] of 16400 ng·h/mL.
For `COc1cc(N2CCC(N3CCN(CC4CCN(c5ccc6c(c5)C(=O)N(C5CCC(=O)NC5=O)C6=O)CC4)CC3)CC2)c(-c2cnn(C)c2)cc1Nc1ncc(Br)c(Nc2ccc(C)c(C)c2P(C)(C)=O)n1` (stereo not drawn) [Compound 73, 5-(4-((4-(1-(4-((5-bromo-4-((2-(dimethylphosphoryl)-3,4-dimethylphenyl)amino)pyrimidin-2-yl)amino)-5-methoxy-2-(1-methyl-1H-pyrazol-4-yl)phenyl)piperidin-4-yl)piperazin-1-yl)methyl)piperidin-1-yl)-2-(2,6-dioxopiperidin-3-yl)isoindoline-1,3-dione], the IC50 ([1]; read-out: IC50 (class symbol)) was less than 100 nM, the IC50 [1, 4] was 26 nM and the IC50 [2] was no less than 10000 nM. The AUC(0-t) [3] was 13700 ng·h/mL.
`COc1cc(N2CCC(N3CCN(C4CC5(CCN(c6ccc7c(c6)C(=O)N(C6CCC(=O)NC6=O)C7=O)CC5)C4)CC3)CC2)c(-c2cnn(C)c2)cc1Nc1ncc(Cl)c(Nc2ccc(-c3ccccc3)cc2P(C)(C)=O)n1` (stereo not drawn) [Compound 91] showed an IC50 ([1]; read-out: IC50 (class symbol)) of less than 100 nM, an IC50 [1, 4] of 78 nM and an IC50 [2] of no less than 10000 nM. It also gave an AUC(0-t) [3] of 7580 ng·h/mL.
`COc1cc(N2CCN(c3ccc4c(c3)C(=O)N(C3CCC(=O)NC3=O)C4=O)CC2)c(-c2cnn(C)c2)cc1Nc1ncc(Cl)c(Nc2ccc(-c3ccccc3)cc2P(C)(C)=O)n1` (stereo not drawn) [Compound 98, 5-(4-(4-((5-chloro-4-((3-(dimethylphosphoryl)-[1,1′-biphenyl]-4-yl)amino)pyrimidin-2-yl)amino)-5-methoxy-2-(1-methyl-1H-pyrazol-4-yl)phenyl)piperazin-1-yl)-2-(2,6-dioxopiperidin-3-yl)isoindoline-1,3-dione] showed an IC50 ([1]; read-out: IC50 (class symbol)) of 100 to 500 nM, an IC50 [1, 4] of 101 nM and an IC50 [2] of no less than 10000 nM. For the same compound, the AUC [3] was 69800 ng·h/mL and the half-life [3] was 10.9 h.
For `COc1cc(N2CCC(N3CCN(CC4CCN(c5ccc6c(c5)C(=O)N(C5CCC(=O)NC5=O)C6=O)CC4)CC3)CC2)c(-c2cnn(C)c2)cc1Nc1ncc(Br)c(Nc2ccc(C3CC3)cc2P(C)(C)=O)n1` (stereo not drawn) [Compound 55, 5-(4-((4-(1-(4-((5-bromo-4-((4-cyclopropyl-2-(dimethylphosphoryl)phenyl)amino)pyrimidin-2-yl)amino)-5-methoxy-2-(1-methyl-1H-pyrazol-4-yl)phenyl)piperidin-4-yl)piperazin-1-yl)methyl)piperidin-1-yl)-2-(2,6-dioxopiperidin-3-yl)isoindoline-1,3-dione], the IC50 ([1]; read-out: IC50 (class symbol)) was less than 100 nM, the IC50 [1, 4] was 30 nM and the IC50 [2] was no less than 10000 nM. The AUC(0-t) [3] was 19900 ng·h/mL.
`COc1cc(N2CCC(N3CCN(CC4CCN(c5ccc6c(c5)C(=O)N(C5CCC(=O)NC5=O)C6=O)CC4)CC3)CC2)c(-c2cnn(C)c2)cc1Nc1ncc(Br)c(Nc2ccc3ccccc3c2P(C)(C)=O)n1` (stereo not drawn) [Compound 71, 5-(4-((4-(1-(4-((5-bromo-4-((1-(dimethylphosphoryl)naphthalen-2-yl)amino)pyrimidin-2-yl)amino)-5-methoxy-2-(1-methyl-1H-pyrazol-4-yl)phenyl)piperidin-4-yl)piperazin-1-yl)methyl)piperidin-1-yl)-2-(2,6-dioxopiperidin-3-yl)isoindoline-1,3-dione] showed an IC50 ([1]; read-out: IC50 (class symbol)) of less than 100 nM, an IC50 [1, 4] of 29 nM and an IC50 [2] of no less than 10000 nM. The AUC(0-t) [3] was 24700 ng·h/mL.
With `COc1cc(N2CCC(N3CCN(CC4CCN(c5ccc6c(c5)C(=O)N(C5CCC(=O)NC5=O)C6=O)CC4)CC3)CC2)c(-c2cnn(C)c2)cc1Nc1ncc(Cl)c(Nc2ccc(-c3ccccc3)cc2P(C)(C)=O)n1` (stereo not drawn) [Compound 58, 5-(4-((4-(1-(4-((5-chloro-4-((3-(dimethylphosphoryl)-[1,1′-biphenyl]-4-yl)amino)pyrimidin-2-yl)amino)-5-methoxy-2-(1-methyl-1H-pyrazol-4-yl)phenyl)piperidin-4-yl)piperazin-1-yl)methyl)piperidin-1-yl)-2-(2,6-dioxopiperidin-3-yl)isoindoline-1,3-dione] the IC50 ([1]; read-out: IC50 (class symbol)) was less than 100 nM, the IC50 [1, 4] was 72 nM and the IC50 [2] was no less than 10000 nM. The AUC(0-t) [3] was 16300 ng·h/mL.
Work on `COc1cc(N2CCC(N3CCN(C4CC5(CCN(c6ccc7c(c6)C(=O)N(C6CCC(=O)NC6=O)C7=O)CC5)C4)CC3)CC2)c(-c2cnn(C)c2)cc1Nc1ncc(Br)c(Nc2ccc(-c3ccccc3)cc2P(C)(C)=O)n1` (stereo not drawn) [Compound 63, 5-(2-(4-(1-(4-((5-bromo-4-((3-(dimethylphosphoryl)-[1,1′-biphenyl]-4-yl)amino)pyrimidin-2-yl)amino)-5-methoxy-2-(1-methyl-1H-pyrazol-4-yl)phenyl)piperidin-4-yl)piperazin-1-yl)-7-azaspiro[3.5]nonan-7-yl)-2-(2,6-dioxopiperidin-3-yl)isoindoline-1,3-dione] yielded an IC50 ([1]; read-out: IC50 (class symbol)) of less than 100 nM, an IC50 [1, 4] of 90 nM and an IC50 [2] of no less than 10000 nM. For the same compound, the AUC(0-t) [3] was 14700 ng·h/mL.
`COc1cc(N2CCC(N3CCC4(CCCN(c5cc6c(cc5F)C(=O)N(C5CCC(=O)NC5=O)C6=O)C4)CC3)CC2)c(-c2cnn(C)c2)cc1Nc1ncc(Br)c(Nc2ccc(-c3ccccc3)cc2P(C)(C)=O)n1` (stereo not drawn) [Compound 88, 5-(9-(1-(4-((5-bromo-4-((3-(dimethylphosphoryl)-[1,1′-biphenyl]-4-yl)amino)pyrimidin-2-yl)amino)-5-methoxy-2-(1-methyl-1H-pyrazol-4-yl)phenyl)piperidin-4-yl)-2,9-diazaspiro[5.5]undecan-2-yl)-2-(2,6-dioxopiperidin-3-yl)-6-fluoroisoindoline-1,3-dione] showed an IC50 ([1]; read-out: IC50 (class symbol)) of less than 100 nM, an IC50 [1, 4] of 67 nM and an IC50 [2] of no less than 10000 nM. For the same compound, the AUC(0-t) [3] was 5120 ng·h/mL.
